Data published in patent US20240360154A1, “AROYL SUBSTITUTED TRICYCLIC COMPOUND, PREPARATION METHOD THEREFOR AND USE THEREOF” (GENFLEET THERAPEUTICS (SHANGHAI) INC., priority 2020, published 2024).

How the values were obtained:
BTK = BTK (Homo sapiens (Human), UniProt Q06187); test: BTK enzyme experiment (ADP-Glo kinase assay); type: biochemical; details: 10 nM BTK, ATP 125 μM, Poly(Glu4, Tyr1), 90 minutes at 20° C.; read-out: BTK(WT) IC50
Method: (§1) A 3-fold gradient concentration stock solution of 1000× compound was prepared using DMSO and diluted 100-fold to 10× compound stock solution using reaction buffer (50 mM HEPES, pH 7.5, 0.0015% Briji-35, 2 mM DTT, 10 mM MgCl2), and the 10× compound stock solution was transferred to a 384-well plate. Enzyme reactions were set up with BTK Kinase Enzyme System (Promega Catalog #V2941) or BTK (C481S) Kinase Enzyme System (Promega Catalog #VA7033). First, a 2× enzyme solution containing 10 nM BTK or 10 nM BTK C481S was prepared with reaction buffer and added to the plate, and incubated with the compound for 10 minutes. […] Finally, the kinase activity was detected according to the experimental steps provided by ADP-Glo™ kinase Assay Kit (Promega, #V9101), and finally the luminescence chemiluminescence value was read. DMSO was used as the maximum signal value, and adding no enzyme was used as the minimum signal value. The inhibition rate of the compound (%)=(maximum signal value−compound signal value)/(maximum signal value−minimum signal value)×100% was calculated. The compound gradient dilution concentration and the corresponding inhibition rate of the enzyme activity were fit by using XLFit four-parameter method, and IC50 value was calculated.

BTK (C481S) = BTK (C481S) (Homo sapiens (Human), UniProt Q06187, C481S); test: BTK C481S enzyme experiment (ADP-Glo kinase assay); type: biochemical; details: 10 nM BTK C481S, ATP 125 μM, Poly(Glu4, Tyr1), 90 minutes at 20° C.
Method: as §1

Sequence of BTK (C481S) (Q06187 whole entry C481S): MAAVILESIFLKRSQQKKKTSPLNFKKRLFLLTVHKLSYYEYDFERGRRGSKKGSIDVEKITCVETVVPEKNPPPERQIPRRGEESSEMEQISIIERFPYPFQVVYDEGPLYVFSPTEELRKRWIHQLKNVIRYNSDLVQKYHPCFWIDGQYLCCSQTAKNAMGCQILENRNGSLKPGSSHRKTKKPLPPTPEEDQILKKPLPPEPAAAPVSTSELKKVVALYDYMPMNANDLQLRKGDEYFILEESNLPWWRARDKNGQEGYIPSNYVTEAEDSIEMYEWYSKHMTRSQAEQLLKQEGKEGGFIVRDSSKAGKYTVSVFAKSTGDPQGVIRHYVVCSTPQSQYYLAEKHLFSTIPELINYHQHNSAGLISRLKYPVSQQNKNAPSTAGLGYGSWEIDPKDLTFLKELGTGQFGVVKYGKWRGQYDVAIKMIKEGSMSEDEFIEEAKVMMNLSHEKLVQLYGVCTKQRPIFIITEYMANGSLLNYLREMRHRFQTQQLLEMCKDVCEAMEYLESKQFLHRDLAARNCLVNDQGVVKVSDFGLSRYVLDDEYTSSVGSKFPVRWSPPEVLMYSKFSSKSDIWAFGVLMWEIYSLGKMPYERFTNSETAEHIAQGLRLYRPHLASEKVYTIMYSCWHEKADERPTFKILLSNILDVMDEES
Sequence of BTK (Q06187 whole entry): as the sequence (Q06187 whole entry C481S) above, with S481C counted along it

| Structure (SMILES) | IC50 (BTK) | IC50 (BTK (C481S)) |
| --- | --- | --- |
| N#C[C@H]1CC[C@@]2(C1)Nc1c(cnc3[nH]cc(C(=O)c4ccc(Oc5ccccc5)cc4Cl)c13)NC2=O (single isomer, unassigned) [Z26-4] | 35.9 nM | 28.5 nM |
| COCC1(C)Nc2c(cnc3[nH]cc(C(=O)c4ccc(Oc5ccccc5)cc4Cl)c23)N(C)C1=O (single isomer, unassigned) [Z52-2, 9-(2-chloro-4-phenoxybenzoyl)-2-(methoxymethyl)-2,4-dimethyl-1,2,4,7-tetrahydro-3H-pyrrolo[3′,2′:5,6]pyrido[3,4-b]pyrazin-3-one] | 136 nM | 92.3 nM |
| COCC1(C)Nc2c(cnc3[nH]cc(C(=O)c4ccc(Oc5cc(C)ccn5)cc4Cl)c23)NC1=O (single isomer, unassigned) [Z64-2, 9-(2-chloro-4-((4-methylpyridin-2-yl)oxy)benzoyl)-2-(methoxymethyl)-2-methyl-1,2,4,7-tetrahydro-3H-pyrrolo[3′,2′:5,6]pyrido[3,4-b]pyrazin-3-one] | 8.4 nM | 17.2 nM |
| CCOC[C@@]1(C)Nc2c(cnc3[nH]cc(C(=O)c4ccc(Oc5ccccc5)cc4Cl)c23)NC1=O (single isomer, unassigned) [Z67-2] | 20.4 nM | 17.8 nM |
| COCC1(C)Nc2c(cnc3[nH]cc(C(=O)c4ccc(Oc5cc(C)ccn5)cc4F)c23)NC1=O (single isomer, unassigned) [Z69-1, 9-(2-fluoro-4-((4-methylpyridin-2-yl)oxy)benzoyl)-2-(methoxymethyl)-2-methyl-1,2,4,7-tetrahydro-3H-pyrrolo[3′,2′:5,6]pyrido[3,4-b]pyrazin-3-one] | 13.9 nM | 21.2 nM |
| COCC1(C)Nc2c(cnc3[nH]cc(C(=O)c4ccc(Oc5cc(C)ccn5)cc4F)c23)NC1=O (single isomer, unassigned) [Z69-2, 9-(2-fluoro-4-((4-methylpyridin-2-yl)oxy)benzoyl)-2-(methoxymethyl)-2-methyl-1,2,4,7-tetrahydro-3H-pyrrolo[3′,2′:5,6]pyrido[3,4-b]pyrazin-3-one] | 17.5 nM | 28.3 nM |
| COC[C@]1(C)Nc2c(cnc3[nH]cc(C(=O)c4ccc(Oc5ccccc5)cc4F)c23)NC1=O (single isomer, unassigned) [Z71-2] | 23.5 nM | 19.2 nM |
| COCC1(C)Nc2c(cnc3[nH]cc(C(=O)c4ccc(Oc5cc(C6CC6)ccn5)cc4Cl)c23)NC1=O (single isomer, unassigned) [Z73-1, 9-(2-chloro-4-((4-cyclopropylpyridin-2-yl)oxy)benzoyl)-2-(methoxymethyl)-2-methyl-4,7-dihydro-1H-pyrrolo[3′,2′:5,6]pyrido[3,4-b]pyrazin-3(2H)-one] | 15.3 nM | 29.5 nM |
| COCC1(C)Nc2c(cnc3[nH]cc(C(=O)c4ccc(Oc5cc(C6CC6)ccn5)cc4Cl)c23)NC1=O (single isomer, unassigned) [Z73-2, 9-(2-chloro-4-((4-cyclopropylpyridin-2-yl)oxy)benzoyl)-2-(methoxymethyl)-2-methyl-4,7-dihydro-1H-pyrrolo[3′,2′:5,6]pyrido[3,4-b]pyrazin-3(2H)-one] | 34.3 nM | 60.8 nM |
| COCCOCC1(C)Nc2c(cnc3[nH]cc(C(=O)c4ccc(Oc5ccccc5)cc4Cl)c23)NC1=O (single isomer, unassigned) [Z153-2, 9-(2-chloro-4-phenoxybenzoyl)-2-((2-methoxyethoxy)methyl)-2-methyl-1,2,4,7-tetrahydro-3H-pyrrolo[3′,2′:5,6]pyrido[3,4-b]pyrazin-3-one] | 114 nM | 51.1 nM |
| CN1CCC2(CC1)Nc1c(cnc3[nH]cc(C(=O)c4ccc(Oc5ccccc5)cc4Cl)c13)NC2=O [Z17, 9′-(2-chloro-4-phenoxybenzoyl)-1-methyl-4′,7′-dihydrospiro[piperidine-4,2′-pyrrolo[3′,2′:5,6]pyrido[3,4-b]pyrazin]-3′(1′H)-one] | 345 nM | 273 nM |
| O=C(c1ccc(Oc2ccccc2)cc1Cl)c1c[nH]c2ncc3c(c12)NC1(CCOC1)CO3 (centres unmarked) [Z18] | 145 nM | 87.7 nM |
| CN1CCCC2(C1)Nc1c(cnc3[nH]cc(C(=O)c4ccc(Oc5ccccc5)cc4Cl)c13)NC2=O (centres unmarked) [Z19, 9′-(2-chloro-4-phenoxybenzoyl)-1-methyl-4′,7′-dihydrospiro[piperidine-3,2′-pyrrolo[3′,2′:5,6]pyrido[3,4-b]pyrazin]-3′(1′H)-one] | 23.1 nM | 12.6 nM |
| CN1C(=O)C2(CCOCC2)Nc2c1cnc1[nH]cc(C(=O)c3ccc(Oc4ccccc4)cc3Cl)c21 [Z22, 9′-(2-chloro-4-phenoxybenzoyl)-4′-methyl-2,3,4′,5,6,7′-hexahydrospiro[pyran-4,2′-pyrrolo[3′,2′:5,6]pyrido[3,4-b]pyrazin]-3′(1′H)-one] | 27.1 nM | 7.2 nM |
| CC1(CO)Nc2c(cnc3[nH]cc(C(=O)c4ccc(Oc5ncccc5C(F)(F)F)cc4Cl)c23)NC1=O (centres unmarked) [Z55, 9-(2-chloro-4-((3-(trifluoromethyl)pyridin-2-yl)oxy)benzoyl)-2-(hydroxymethyl)-2-methyl-4,7-dihydro-1H-pyrrolo[3′,2′:5,6]pyrido[3,4-b]pyrazin-3(2H)-one] | 142 nM | 120 nM |
| Cc1ccnc(Oc2ccc(C(=O)c3c[nH]c4ncc5c(c34)NC(C)(CO)C(=O)N5)c(Cl)c2)c1 (centres unmarked) [Z56, 9-(2-chloro-4-((4-methylpyridin-2-yl)oxy)benzoyl)-2-(hydroxymethyl)-2-methyl-1,2,4,7-tetrahydro-3H-pyrrolo[3′,2′:5,6]pyrido[3,4-b]pyrazin-3-one] | 22.9 nM | 18.4 nM |
| CN(C)CCN1C(=O)C(C)(C)Nc2c1cnc1[nH]cc(C(=O)c3ccc(Oc4ccccc4)cc3Cl)c21 [Z63] | 185 nM | 129 nM |
| COCC1(C)Nc2c(cnc3[nH]cc(C(=O)c4ccc(Oc5cc(C)ccn5)cc4F)c23)NC1=O (centres unmarked) [Z69, 9-(2-fluoro-4-((4-methylpyridin-2-yl)oxy)benzoyl)-2-(methoxymethyl)-2-methyl-1,2,4,7-tetrahydro-3H-pyrrolo[3′,2′:5,6]pyrido[3,4-b]pyrazin-3-one] | 34.8 nM | 28 nM |
| COC[C@]1(C)Nc2c(cnc3[nH]cc(C(=O)c4ccccc4Cl)c23)NC1=O [Z79, (S)-9-(2-chlorobenzoyl)-2-(methoxymethyl)-2-methyl-1,2,4,7-tetrahydro-3H-pyrrolo[3′,2′:5,6]pyrido[3,4-b]pyrazin-3-one] | 5.8 nM | 3.2 nM |
| COC[C@]1(C)Nc2c(cnc3[nH]cc(C(=O)c4cc(F)ccc4Cl)c23)NC1=O [Z85, (S)-9-(2-chloro-5-fluorobenzoyl)-2-(methoxymethyl)-2-methyl-1,2,4,7-tetrahydro-3H-pyrrolo[3′,2′:5,6]pyrido[3,4-b]pyrazin-3-one] | 15.2 nM | 18.5 nM |
| COC[C@]1(C)Nc2c(cnc3[nH]cc(C(=O)c4ccccc4Br)c23)NC1=O [Z86, (S)-9-(2-bromobenzoyl)-2-(methoxymethyl)-2-methyl-1,2,4,7-tetrahydro-3H-pyrrolo[3′,2′:5,6]pyrido[3,4-b]pyrazin-3-one] | 16 nM | 9.7 nM |
| COC[C@]1(C)Nc2c(cnc3[nH]cc(C(=O)c4ccccc4)c23)NC1=O [Z89, (S)-9-benzoyl-2-(methoxymethyl)-2-methyl-1,2,4,7-tetrahydro-3H-pyrrolo[3′,2′:5,6]pyrido[3,4-b]pyrazin-3-one] | 23.4 nM | 7.5 nM |
| COC[C@]1(C)Nc2c(cnc3[nH]cc(C(=O)c4sccc4Cl)c23)NC1=O [Z103, (S)-9-(3-chlorothiophene-2-carbonyl)-2-(methoxymethyl)-2-methyl-1,2,4,7-tetrahydro-3H-pyrrolo[3′,2′:5,6]pyrido[3,4-b]pyrazin-3-one] | 20.1 nM | 9.8 nM |
| COC[C@]1(C)Nc2c(cnc3[nH]cc(C(=O)c4ccc(OC)cc4Cl)c23)NC1=O [Z113, (S)-9-(2-chloro-4-methoxybenzoyl)-2-(methoxymethyl)-2-methyl-1,2,4,7-tetrahydro-3H-pyrrolo[3′,2′:5,6]pyrido[3,4-b]pyrazin-3-one] | 61.8 nM | 61.1 nM |
| COC[C@]1(C)Nc2c(cnc3[nH]cc(C(=O)c4ccc(OC5CCCC5)cc4Cl)c23)NC1=O [Z122, (S)-9-(2-chloro-4-(cyclopentyloxy)benzoyl)-2-(methoxymethyl)-2-methyl-1,2,4,7-tetrahydro-3H-pyrrolo[3′,2′:5,6]pyrido[3,4-b]pyrazin-3-one] | 64.1 nM | 70.5 nM |
| COC[C@]1(C)Nc2c(cnc3[nH]cc(C(=O)c4ccc(Oc5ccccc5)cc4)c23)NC1=O [Z125-1, (S)-2-(methoxymethyl)-2-methyl-9-(4-phenoxybenzoyl)-1,2,4,7-tetrahydro-3H-pyrrolo[3′,2′:5,6]pyrido[3,4-b]pyrazin-3-one] | 28.2 nM | 29.1 nM |
| COC[C@]1(C)Nc2c(cnc3[nH]cc(C(=O)c4ccc(Oc5cc(C)cc(C)n5)cc4Cl)c23)NC1=O [Z127-1, (S)-9-(2-chloro-4-((4,6-dimethylpyridin-2-yl)oxy)benzoyl)-2-(methoxymethyl)-2-methyl-1,2,4,7-tetrahydro-3H-pyrrolo[3′,2′:5,6]pyrido[3,4-b]pyrazin-3-one] | 29.1 nM | 31.5 nM |
| COC[C@]1(C)Nc2c(cnc3[nH]cc(C(=O)c4ncc(Oc5ccccc5)cc4Cl)c23)NC1=O [Z133] | 28.8 nM | 38.4 nM |
